The values that follow come from PubChem BioAssay AID624344 (Sanford-Burnham Center for Chemical Genomics, 2012).

Test [1] can be described thus: NFkB reporter suppression in cystic fibrosis bronchial cells – cell-based, uHTS hits, panel, cytotoxicity readout, dose response (AID 624344). The settings on record: CF bronchial epithelial cells, PAF-induced NFkB reporter inhibition; with PAF, mean of runs.
For another test, the system named is Cytotoxicity. The description is as above. The settings on record: CF bronchial epithelial cells, mean of runs.

Molecules are shown by their SMILES. The source made the active and inactive calls. The rule behind the calls is not given here.

The IC50 is the concentration at which inhibition is half-maximal. `CCCC1/C(=N/O)CC(c2ccccc2)NC1c1ccccc1` (stereo not given): the values for the 50% inhibitory concentration (IC50) (in test [1]; with Cytotoxicity) were 5.52 µM and 6.23 µM, respectively.

For `COc1ccc(NC(=O)Cn2ncn3nc(-c4ccc(OC)cc4)cc3c2=O)cc1`, the half-inhibitory concentration (IC50) is 6.69 µM in test [1] and 5.34 µM in the test with Cytotoxicity.

For `CCCCN(CCCC)c1ncnc2nc[nH]c12`, the IC50 was 5.64 µM in test [1] and 41.4 µM in the test with Cytotoxicity.

Consider `O=C(Nc1ccccc1)Nc1ncc([N+](=O)[O-])s1`, for which the half-maximal inhibitory concentration (IC50) was 2.73 µM in test [1] and 12.6 µM in the test with Cytotoxicity.

As for `CC(=O)c1c(O)cc(O)c(C(C)=O)c1O`, the half-maximal inhibitory concentration (IC50) is 5.34 µM in test [1] and 5.8 µM in the test with Cytotoxicity.

Turning to `COc1ccc(-c2cn[nH]c2-c2ccc(OC)cc2O)cc1`, the concentration for half-maximal inhibition (IC50) in test [1] was 2.92 µM; with Cytotoxicity, 46.4 µM.

For the compound `COc1ccc(-n2c(C)c(C(C)=O)c3cc(O)ccc32)cc1`, the IC50 was 0.308 µM in test [1] and > 79 µM (inactive) in the test with Cytotoxicity.

`Cc1ccc(-c2cc(C(=O)N(C)Cc3cnn(C)c3C)c3cc(Br)ccc3n2)cc1`: the 50% inhibitory concentration (IC50) was 5.57 µM in test [1] and 14.4 µM in the test on Cytotoxicity.

Consider `CCN(CC(=O)Nc1ccc(OC)cc1)C(=O)c1cc(-c2cccs2)nn1-c1ccccc1`, for which the IC50 is 5.29 µM in test [1] and 7.56 µM with Cytotoxicity.

For the compound `CCCn1c(-c2nonc2N)nc2ccccc21`, the IC50 is 4.28 µM in test [1] and 31.6 µM in the test on Cytotoxicity.

On to `COCCN1Cc2cccc(C(=O)Nc3cccc(-c4nc5ccccc5[nH]4)c3)c2C1=O`, for which the IC50 in test [1] is 7.9 µM; in the test with Cytotoxicity, 11.1 µM.

Take `CCOc1cc(Br)c(Br)c(C=Nc2ccc(NC(C)=O)cc2)c1O`: the figures for the 50% inhibitory concentration (IC50) (in test [1]; in the test on Cytotoxicity) were 3.91 µM and > 79 µM (inactive), respectively.

On to `CN(c1ncnc(N)c1[N+](=O)[O-])C1CCS(=O)(=O)C1` (stereo not given), for which the concentration for half-maximal inhibition (IC50) is 2.79 µM in test [1] and > 79 µM (inactive) in the test on Cytotoxicity.

With `CC(C)C[C@@H](CN1CCCC1CN1C(=S)NC[C@@H]1Cc1ccc(O)cc1)N1C[C@H](Cc2ccc(O)cc2)N(CC2CCCCCC2)C1=S` (stereo not given in full), the IC50 was 7.98 µM in test [1] and 25.2 µM in the test on Cytotoxicity.

For the compound `Nc1nc(N)nc(-c2cc([N+](=O)[O-])ccc2O)n1`, the IC50 is 8.82 µM in test [1] and > 79 µM (inactive) with Cytotoxicity.

Regarding `COc1ccc(-c2cnc3c(NC=O)cc(-c4ccccc4OC)cn23)cc1OC`, the IC50 in test [1] was 6.5 µM; with Cytotoxicity it was 13.7 µM.

For the compound `CC(C)(C)c1nc(NC(=O)Nc2ccccc2)sc1Br`, the IC50 in test [1] is 6.59 µM; with Cytotoxicity, 12.6 µM.

On to `CCOC(=O)c1c(-c2ccccc2)oc2cc(Br)c(O)c(C=O)c12`, for which the IC50 in test [1] was 3.05 µM; in the test with Cytotoxicity, 13.3 µM.

Regarding `O=Nc1ccc(NO)c2ccccc12`, the IC50 in test [1] was 7.21 µM; in the test with Cytotoxicity it was 17.4 µM.

On to `C=CCN(CC=C)c1ncnc2[nH]ncc12`, for which the IC50 in test [1] is 1.24 µM; in the test on Cytotoxicity, > 79 µM (inactive).

Turning to `COc1cccc(NC(=O)Nc2nnc(CC(=O)NCc3ccccc3)s2)c1`, the IC50 in test [1] was 5.09 µM; in the test on Cytotoxicity, 52.3 µM (inactive).

As to `O=C(NCc1ccco1)c1nc2c(nnn2Cc2ccccc2Cl)c(=O)[nH]1`, the 50% inhibitory concentration (IC50) in test [1] is 1.46 µM; in the test on Cytotoxicity, 5.1 µM.

Take `CN(Cc1ccco1)c1ncnc2ccc(-c3ccoc3)cc12`: the IC50 was 8.08 µM in test [1] and 50.9 µM (inactive) with Cytotoxicity.

With `Cc1ccnc(NC(=O)CCCOc2cc(=O)n(C)c3ccccc23)c1`, the IC50 in test [1] was 11.2 µM; with Cytotoxicity it was 62.3 µM (inactive).

On to `Brc1ccc2ncnc(NCc3ccco3)c2c1`, for which the IC50 in test [1] is 5.67 µM; in the test with Cytotoxicity it was 72.7 µM (inactive).

For the compound `ON=C1c2ccccc2-c2ccccc21`, the IC50 in test [1] was 19.5 µM; with Cytotoxicity, 63 µM (inactive).

`CN(C)c1ccc(-c2nn3c(-c4ccccc4Cl)nnc3s2)cc1`: the IC50 is 19.2 µM in test [1] and > 79 µM (inactive) in the test with Cytotoxicity.

As to `O=S(=O)(CC(CN1CCCC1)N1CCCC1)c1ccc2ccccc2c1` (stereo not given), the IC50 in test [1] was 1.46 µM; in the test on Cytotoxicity, 2.35 µM.

In the case of `Nc1nc(N)nc(-c2cc(O)ccc2O)n1`, the IC50 was 3.31 µM in test [1] and 21.2 µM with Cytotoxicity.

Regarding `NC(=O)c1nsc(C(=O)N(c2ccccc2F)C(C(=O)NCc2ccc(F)cc2)c2ccc(O)cc2)c1N` (stereo not given), the 50% inhibitory concentration (IC50) was 2.08 µM in test [1] and 6.55 µM in the test on Cytotoxicity.

Regarding `C[C@@H]1CN([C@H](C)CO)C(=O)c2cc(NC(=O)Nc3ccc(C(F)(F)F)cc3)ccc2O[C@H]1CN(C)S(=O)(=O)c1ccc(Cl)cc1`, the half-inhibitory concentration (IC50) in test [1] is 14.1 µM; in the test with Cytotoxicity it was > 79 µM (inactive).

Turning to `Cc1ccc(NC(=O)CSc2ncnc3ccccc23)cc1S(=O)(=O)N1CCOCC1`, the figures for the half-maximal inhibitory concentration (IC50) (in test [1]; with Cytotoxicity) were 4.14 µM and 34.6 µM, respectively.

Take `Cc1ccc2c(c1)C(=O)C(=O)N2Cc1ccc(Br)cc1`: the half-inhibitory concentration (IC50) was 19.1 µM in test [1] and > 79 µM (inactive) in the test on Cytotoxicity.

For `CCOC(=O)c1ccc(NC(=O)Nc2nncs2)cc1`, the figures for the 50% inhibitory concentration (IC50) (in test [1]; with Cytotoxicity) were 9.39 µM and 64 µM (inactive), respectively.

For the compound `Fc1cccc(Cl)c1/C=N/Nc1c(Cl)cncc1Cl`, the IC50 in test [1] was 5.83 µM; in the test on Cytotoxicity, 26.2 µM.

On to `COc1ccc(CN(C(=O)CSc2nnc(-c3c[nH]c4ccccc34)o2)c2ccc(F)cc2)cc1OC`, for which the 50% inhibitory concentration (IC50) in test [1] is 3.94 µM; with Cytotoxicity, 7.44 µM.

For the compound `N#CC(C#N)c1ccnc2ccccc12`, the values for the IC50 (in test [1]; in the test with Cytotoxicity) were 3.17 µM and 28.3 µM, respectively.

As for `Cc1ccc(S(=O)(=O)Nc2cccc3ncccc23)s1`, the figures for the IC50 (in test [1]; in the test with Cytotoxicity) were 1.48 µM and > 79 µM (inactive), respectively.

Consider `C=C1C(=O)[C@]23C[C@H]1CC[C@H]2[C@]1(C)[C@@H](OC(C)=O)CC[C@@](C)(C(=O)O)[C@H]1C[C@@H]3O`, for which the IC50 in test [1] was 0.938 µM; in the test with Cytotoxicity, 8.28 µM.

On to `CC1(C)CC(=O)C(C2C3=C(CC(C)(C)CC3=O)Oc3c(Br)cc(Br)cc32)=C(O)C1` (stereo not given), for which the figures for the IC50 (in test [1]; with Cytotoxicity) were 6.19 µM and 15.1 µM, respectively.

Consider `C=CCOc1c(OC)cc(/C=N/Nc2cccc(C(=O)O)c2)c(Br)c1Br`, for which the IC50 in test [1] is 15.3 µM; in the test with Cytotoxicity, 44.5 µM.

In the case of `C=CCN1c2ccccc2[C@]23C[C@@H](C(=O)OC)N(C(=O)c4ccc(Br)cc4)C2=NC(C(=O)OC)=C(C(=O)OC)[C@H]13`, the figures for the IC50 (in test [1]; with Cytotoxicity) were 9.35 µM and 12.2 µM, respectively.

With `O=C1N(c2ccccc2C(F)(F)F)O[C@@]1(c1ccccc1)C1CCCCC1`, the results for the IC50 (in test [1]; in the test with Cytotoxicity) were 8.4 µM and > 79 µM (inactive), respectively.

On to `O=C(Nc1ccccc1N1CCOCC1)c1cc(-c2ccco2)nc2ccccc12`, for which the IC50 in test [1] was 3.88 µM; in the test on Cytotoxicity it was 9.59 µM.

For `CCc1nc(Cl)c(C#N)c2c1CCCC2`, the values for the concentration for half-maximal inhibition (IC50) (in test [1]; in the test on Cytotoxicity) were 2.87 µM and 45.4 µM, respectively.

For the compound `CC1C(c2ccccc2)OCCN1C(=S)Nc1ccc(S(=O)(=O)N2CCCCC2)cc1` (stereo not given), the IC50 is 9.52 µM in test [1] and 56.5 µM (inactive) with Cytotoxicity.

Take `COc1ccc(N(CCCN2C(=O)c3cccc4cccc(c34)C2=O)C(=O)c2ccncc2)cc1`: the IC50 entry in test [1] is “inactive”. In addition, the half-inhibitory concentration (IC50) in the test with Cytotoxicity is 12.9 µM.

On to `C[C@H]1Cn2cnc(C(=O)Nc3cccc(Cl)c3)c2C(=O)N1`, for which the half-maximal inhibitory concentration (IC50) in test [1] was 2.26 µM; with Cytotoxicity, 25.5 µM.

For the compound `O=C(CCC1COc2ccccc2O1)Nc1ccc(Cl)cn1` (stereo not given), the half-maximal inhibitory concentration (IC50) was 10.2 µM in test [1] and 50.9 µM (inactive) in the test with Cytotoxicity.

With `COc1ccc(/C=N/Nc2nc(-c3cccnc3)nc3ccccc23)cc1OC`, the 50% inhibitory concentration (IC50) was 3 µM in test [1] and 8.04 µM in the test with Cytotoxicity.
